Key:
THP-1 = test: Cytotoxicity against LPS-primed human PMA-differentiated THP-1 cells 2.5 to 5 uM by CytoTox 96 Non-Radioactive assay; type: cell-based; details: dose 2.5-5 µM
[1] = In vivo inhibition of NLRP3 inflammasome activation in C57BL/6 mouse assessed as survival rate at 50 mg/kg, ip pretreated for 1 hr followed by LPS-treatment and measured every 12 hrs for 48 hrs relative to control; type: functional; details: C57BL/6, ip, time 49 hrs
[2] = In vivo inhibition of NLRP3 inflammasome activation in C57BL/6 mouse assessed as mortality rate at 50 mg/kg, ip pretreated for 1 hr followed by LPS-treatment and measured every 12 hrs for 48 hrs (reference value: 100%); type: functional; details: C57BL/6, ip, 61 h

COc1c(/C=C/C(=O)c2ccccc2)cc(OC)c2occc12
Activity (THP-1): Non-Toxic
survival at 50 mg/kg [1]: 100%
mortality at 50 mg/kg [2]: 24%

Reference: ChEMBL document CHEMBL4699526, “Flavonoids with Inhibitory Effects on NLRP3 Inflammasome Activation from Millettia velutina” (J Nat Prod, 2020)
